Data: US20030176406A1, “Polycaprolactone-b-poly (ethylene oxide) copolymer non-cross-linked micelles as a delivery vehicle for steroid” (McGill University, priority 1999, published 2003)

Test: Kinetic release of DHT from PCL20-b-PEO44 micelles (dialysis method, PBS pH 7.4, 37° C.)
Format: physicochemical
Conditions: control solution (drug alone)
Procedure: To the dried micelles, 100 μL of phosphate buffer solution, PBS (pH 7.4) was added. To ensure that the micelles were well dispersed in PBS, the solutions were vortexed. The dispersed micelles were left to stand in a 37° C. warm room for 30 minutes. Once the micelle solution had reached 37° C., it was placed in a dialysis bag which was immersed in a large vial containing warmed PBS (10 mL PBS, pH=7.4, 37° C.). […] The aliquot was dispersed in 4 mL of scintillation cocktail and then counted. Following the removal of each 100 uL aliquot, a 100 uL aliquot of fresh PBS was added.
The dialysis method was used to study the release of DHT from two micelle solutions which differed in the amount of DHT that they contained. The concentration of the solutions studied were 8 mM and 40 mM.

Q: With `C[C@]12CCC(=O)C[C@@H]1CC[C@@H]1[C@@H]2CC[C@]2(C)[C@@H](O)CC[C@@H]12` [DHT, dihydrotestosterone] as the molecule, how does the “time to complete release” value read?
A: 3 h
